In the NIST ThermoML archive (doi:10.1016/j.jct.2013.01.005):
± gives the expanded uncertainty stated by the source.

Experiment: activity coefficient (dimensionless); of the first substance listed, at infinite dilution; xn = mol fraction of the nth substance listed
Settings: 101 kPa, Liquid, Chromatography, x1 = 0

SMILES | activity coefficient (318.15 K) | activity coefficient (328.15 K) | activity coefficient (338.15 K) | activity coefficient (348.15 K) | activity coefficient (358.15 K) | activity coefficient (308.15 K)
CCCCC(C)=O [2-hexanone] + CCCCC[N+]1(C)CCCCC1.O=S(=O)([N-]S(=O)(=O)C(F)(F)F)C(F)(F)F | 0.761 ± 0.05 | 0.779 ± 0.051 | 0.792 ± 0.052 | 0.822 ± 0.053 | 0.84 ± 0.054 | 
CCC(C)(C)OC [2-methoxy-2-methylbutane] + CCCCCC[N+]1(C)CCCCC1.O=S(=O)([N-]S(=O)(=O)C(F)(F)F)C(F)(F)F | 2.14 ± 0.15 | 2.18 ± 0.15 | 2.2 ± 0.15 | 2.22 ± 0.15 | 2.25 ± 0.15 | 2.11 ± 0.14
CCC(C)(C)OC [2-methoxy-2-methylbutane] + CCCCC[N+]1(C)CCCCC1.O=S(=O)([N-]S(=O)(=O)C(F)(F)F)C(F)(F)F | 2.47 ± 0.17 | 2.5 ± 0.17 | 2.53 ± 0.17 | 2.57 ± 0.17 | 2.6 ± 0.18 | 2.44 ± 0.17
COC(C)(C)C [2-methoxy-2-methylpropane] + CCCCCC[N+]1(C)CCCCC1.O=S(=O)([N-]S(=O)(=O)C(F)(F)F)C(F)(F)F | 1.63 ± 0.11 | 1.66 ± 0.11 | 1.7 ± 0.11 | 1.72 ± 0.12 | 1.76 ± 0.12 | 1.59 ± 0.11
COC(C)(C)C [2-methoxy-2-methylpropane] + CCCCC[N+]1(C)CCCCC1.O=S(=O)([N-]S(=O)(=O)C(F)(F)F)C(F)(F)F | 1.85 ± 0.12 | 1.86 ± 0.13 | 1.89 ± 0.13 | 1.94 ± 0.13 | 1.98 ± 0.13 | 1.81 ± 0.12
CC(C)=O [acetone] + CCCCCC[N+]1(C)CCCCC1.O=S(=O)([N-]S(=O)(=O)C(F)(F)F)C(F)(F)F | 0.429 ± 0.035 | 0.436 ± 0.035 | 0.444 ± 0.036 | 0.455 ± 0.036 | 0.46 ± 0.036 | 0.421 ± 0.035
CC(C)=O [acetone] + CCCCC[N+]1(C)CCCCC1.O=S(=O)([N-]S(=O)(=O)C(F)(F)F)C(F)(F)F | 0.426 ± 0.035 | 0.435 ± 0.035 | 0.441 ± 0.035 | 0.456 ± 0.036 | 0.466 ± 0.036 | 0.398 ± 0.034
c1ccccc1 [benzene] + CCCCCC[N+]1(C)CCCCC1.O=S(=O)([N-]S(=O)(=O)C(F)(F)F)C(F)(F)F | 0.687 ± 0.046 | 0.695 ± 0.047 | 0.71 ± 0.047 | 0.722 ± 0.048 | 0.73 ± 0.048 | 0.669 ± 0.045
c1ccccc1 [benzene] + CCCCC[N+]1(C)CCCCC1.O=S(=O)([N-]S(=O)(=O)C(F)(F)F)C(F)(F)F | 0.703 ± 0.047 | 0.712 ± 0.047 | 0.721 ± 0.048 | 0.744 ± 0.049 | 0.753 ± 0.05 | 0.696 ± 0.047
CCCCO [butan-1-ol] + CCCCCC[N+]1(C)CCCCC1.O=S(=O)([N-]S(=O)(=O)C(F)(F)F)C(F)(F)F | 2.13 ± 0.14 | 1.93 ± 0.13 | 1.76 ± 0.12 | 1.64 ± 0.11 | 1.52 ± 0.1 | 2.4 ± 0.16
CCCCO [butan-1-ol] + CCCCC[N+]1(C)CCCCC1.O=S(=O)([N-]S(=O)(=O)C(F)(F)F)C(F)(F)F | 2.16 ± 0.15 | 1.98 ± 0.13 | 1.82 ± 0.12 | 1.71 ± 0.11 | 1.57 ± 0.1 | 2.3 ± 0.16
C1CCCCCC1 [cycloheptane] + CCCCCC[N+]1(C)CCCCC1.O=S(=O)([N-]S(=O)(=O)C(F)(F)F)C(F)(F)F | 6.01 ± 0.41 | 5.77 ± 0.39 | 5.52 ± 0.38 | 5.32 ± 0.36 | 5.08 ± 0.35 | 6.23 ± 0.42
C1CCCCCC1 [cycloheptane] + CCCCC[N+]1(C)CCCCC1.O=S(=O)([N-]S(=O)(=O)C(F)(F)F)C(F)(F)F | 7.49 ± 0.51 | 7.13 ± 0.49 | 6.82 ± 0.46 | 6.54 ± 0.45 | 6.26 ± 0.43 | 7.97 ± 0.54
C1CCCCC1 [cyclohexane] + CCCCCC[N+]1(C)CCCCC1.O=S(=O)([N-]S(=O)(=O)C(F)(F)F)C(F)(F)F | 4.8 ± 0.33 | 4.6 ± 0.31 | 4.43 ± 0.3 | 4.28 ± 0.29 | 4.06 ± 0.28 | 4.99 ± 0.34
C1CCCCC1 [cyclohexane] + CCCCC[N+]1(C)CCCCC1.O=S(=O)([N-]S(=O)(=O)C(F)(F)F)C(F)(F)F | 5.95 ± 0.41 | 5.64 ± 0.38 | 5.42 ± 0.37 | 5.13 ± 0.35 | 4.99 ± 0.34 | 6.4 ± 0.44
C1=CCCCC1 [cyclohexene] + CCCCCC[N+]1(C)CCCCC1.O=S(=O)([N-]S(=O)(=O)C(F)(F)F)C(F)(F)F | 3 ± 0.2 | 2.94 ± 0.2 | 2.88 ± 0.2 | 2.81 ± 0.19 | 2.75 ± 0.19 | 3.07 ± 0.21
C1=CCCCC1 [cyclohexene] + CCCCC[N+]1(C)CCCCC1.O=S(=O)([N-]S(=O)(=O)C(F)(F)F)C(F)(F)F | 3.63 ± 0.25 | 3.53 ± 0.24 | 3.39 ± 0.23 | 3.3 ± 0.22 | 3.21 ± 0.22 | 3.73 ± 0.25
C1CCCCCCC1 [cyclooctane] + CCCCCC[N+]1(C)CCCCC1.O=S(=O)([N-]S(=O)(=O)C(F)(F)F)C(F)(F)F | 7.36 ± 0.5 | 7.15 ± 0.49 | 6.87 ± 0.47 | 6.75 ± 0.46 | 6.53 ± 0.45 | 7.57 ± 0.52
C1CCCCCCC1 [cyclooctane] + CCCCC[N+]1(C)CCCCC1.O=S(=O)([N-]S(=O)(=O)C(F)(F)F)C(F)(F)F | 9.58 ± 0.65 | 9.06 ± 0.62 | 8.6 ± 0.59 | 8.24 ± 0.56 | 7.8 ± 0.53 | 10.1 ± 0.7
C1CCCC1 [cyclopentane] + CCCCCC[N+]1(C)CCCCC1.O=S(=O)([N-]S(=O)(=O)C(F)(F)F)C(F)(F)F | 3.59 ± 0.24 | 3.43 ± 0.23 | 3.34 ± 0.23 | 3.24 ± 0.22 | 3.12 ± 0.21 | 3.72 ± 0.25
C1CCCC1 [cyclopentane] + CCCCC[N+]1(C)CCCCC1.O=S(=O)([N-]S(=O)(=O)C(F)(F)F)C(F)(F)F | 4.5 ± 0.31 | 4.24 ± 0.29 | 3.98 ± 0.27 | 3.82 ± 0.26 | 3.72 ± 0.25 | 4.72 ± 0.32
CCCCCCCCCC [decane] + CCCCCC[N+]1(C)CCCCC1.O=S(=O)([N-]S(=O)(=O)C(F)(F)F)C(F)(F)F | 22.2 ± 1.5 | 21.1 ± 1.4 | 20 ± 1.4 | 19.1 ± 1.3 | 18.3 ± 1.3 | 23.5 ± 1.6
CCCCCCCCCC [decane] + CCCCC[N+]1(C)CCCCC1.O=S(=O)([N-]S(=O)(=O)C(F)(F)F)C(F)(F)F | 29.5 ± 2 | 27.9 ± 1.9 | 26.2 ± 1.8 | 25.1 ± 1.7 | 23.8 ± 1.6 | 31.9 ± 2.2
